This is an account of results in patent US20250230138A1, “COMPOUNDS HAVING A T-STRUCTURE FORMED BY AT LEAST FOUR CYCLES FOR USE IN THE TREATMENT OF CANCER AND OTHER INDICATIONS” (TheRas, Inc., priority 2022, published 2025).

Read-outs that look alike come from different tables or passages of the source.

Experiment [1] deals with Cys242 in human PIK3CA (157-299) (Homo sapiens (Human), UniProt P42336). In words: Covalent modification assay using MALDI-TOF MS. The note with it: 4 h reaction time point. It counts as biochemical. The essentials: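 Covalent adduct formation was read by linear-mode MALDI-TOF with sinapinic acid matrix, reported as modified-protein peak height divided by total protein peak heights. Reactions held PIK3CA (157-299) at 1 or 3.33 μM in HEPES/NaCl/MgCl2 buffer, pH 7.3, sampled after 15 min to 4 h at room temperature.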
Chain of Cys242 in human PIK3CA (157-299) (P42336 157-299): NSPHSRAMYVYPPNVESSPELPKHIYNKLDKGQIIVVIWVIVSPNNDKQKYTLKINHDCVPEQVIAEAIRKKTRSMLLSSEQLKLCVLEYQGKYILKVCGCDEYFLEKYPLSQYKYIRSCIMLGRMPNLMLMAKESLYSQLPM

The test system of a further experiment is pAKT in BT474 cells. In words: Cell-based pAKT HTRF assay in BT474 cells. The note with it: BT474 cells, 4 hr incubation, read-out: pAKT inhibition IC50 in BT474 cells. The essentials: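 Treatment lasts 4 hr in DMEM/10% FBS at 0.25% DMSO over nine 3-fold dilutions from 3 μM. The lysate is then probed by HTRF.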
The mark [2] stands for this setting: 3.33 μM protein target, 1:7.5 protein to compound ratio (compounds 1-852).
[3] abbreviates: 1 μM protein target, 1:5 protein to compound ratio (compounds 853-1279).
Setting [4] is: Homo sapiens, BT-474, Compounds 10-999.

`C=CC(=O)N1CCn2nc(-c3nc(-c4ccc5c(cnn5C)c4)c4ccsc4c3-c3c(F)cc(F)cc3OCCO)cc2[C@@H]1C` [Compound 663, 1-((S)-2-((S)-7-(2,4-difluoro-6-(2-hydroxyethoxy)phenyl)-4-(1-methyl-1H-indazol-5-yl)thieno[3,2-c]pyridin-6-yl)-4-methyl-6,7-dihydropyrazolo[1,5-a]pyrazin-5(4H)-yl)prop-2-en-1-one]: in experiment [1] (setting [2]), the “% of modification” value was “A (percent of modification of PIK3CA protein ≥75%)”. For the same compound, the IC50 in the experiment with pAKT in BT474 cells (Compounds 10-999) was below 100 nM.

On to `C=CC(=O)N1CCc2nc(-c3nc(-c4ccnc(N)c4)c4ccsc4c3-c3ccc(F)cc3OCCOC)sc2C1` [Compound 141], for which the “% of modification” value in experiment [1] (setting [2]) is listed as “A (percent of modification of PIK3CA protein ≥75%)”. Also, in the experiment with pAKT in BT474 cells (Compounds 10-999), the 50% inhibitory concentration (IC50) was below 100 nM.

For the compound `C=CC(=O)N1CCn2nc(-c3nc(-c4cnnc(N5CCN(C)CC5)c4)c4ccsc4c3-c3c(F)cc(F)cc3OCCOC)cc2C1C` (centres unmarked) [Compound 1045], in experiment [1] (setting [3]), the “% of modification” value is “A (percent of modification of PIK3CA protein ≥75%)”. Besides, in the experiment on pAKT in BT474 cells (Compounds 1000-1279), the IC50 was below 100 nM.

`C=CC(=O)N1Cc2cc(-c3nc(-c4ccc5c(c4)CN(C)C5=O)c4ccsc4c3-c3c(F)cc(F)cc3OCCOC)nn2CC1C` (centres unmarked) [Compound 474]: the “% of modification” value in experiment [1] (setting [2]) is given as “A (percent of modification of PIK3CA protein ≥75%)”. The IC50 in the experiment on pAKT in BT474 cells (Compounds 10-999) is below 100 nM.

Consider `C=CC(=O)N1CCn2nc(-c3nc(-c4ccn5cncc5c4)c4ccsc4c3-c3c(F)cc(F)cc3OCCOC)cc2C1C` (centres unmarked) [Compound 1074], for which the “% of modification” value in experiment [1] (setting [3]) was “A (percent of modification of PIK3CA protein ≥75%)”. Further, the IC50 with pAKT in BT474 cells (Compounds 1000-1279) is below 100 nM.

Turning to `C=CC(=O)N1CCc2oc(-c3nc(-c4ccc5c(c4)CCNC5)c4ccsc4c3-c3ccc(F)cc3OC)nc2C1` [Compound 112, 1-[2-[7-(4-fluoro-2-methoxy-phenyl)-4-(1,2,3,4-tetrahydroisoquinolin-6-yl)thieno[3,2-c]pyridin-6-yl]-6,7-dihydro-4H-oxazolo[4,5-c]pyridin-5-yl]prop-2-en-1-one], the “% of modification” value in experiment [1] (setting [2]) is recorded as “A (percent of modification of PIK3CA protein ≥75%)”. Moreover, the IC50 in the experiment with pAKT in BT474 cells (setting [4]) lay within 100 to 1000 nM.

In the case of `C=CC(=O)N1CCc2ncc(-c3nc(-c4cnn(C)c4)c4ccsc4c3-c3c(F)cc(F)cc3OCCO)cc2C1` [Compound 395], the “% of modification” value in experiment [1] (setting [2]) is recorded as “A (percent of modification of PIK3CA protein ≥75%)”. In addition, the IC50 in the experiment with pAKT in BT474 cells (Compounds 10-999) is below 100 nM.

On to `C=CC(=O)N1Cc2cc(-c3nc(-c4cnnc(C)c4)c4ccsc4c3-c3c(F)cc(F)cc3OCCOC)nn2C[C@H]1C` [Compound 633], for which, in experiment [1] (setting [2]), the “% of modification” value is reported as “D (percent of modification <25%)”. For the same compound, the concentration for half-maximal inhibition (IC50) in the experiment on pAKT in BT474 cells (Compounds 10-999) was 1000 to 3000 nM.

Consider `C=CC(=O)N1Cc2cc(-c3nc(-c4ccc5c(c4)CCN(C)C5)c4ccsc4c3-c3c(F)cc(F)cc3OC3CC3)nn2C[C@H]1C` [Compound 516], for which the “% of modification” value in experiment [1] (setting [2]) is “A (percent of modification of PIK3CA protein ≥75%)”. Also, the IC50 in the experiment on pAKT in BT474 cells (Compounds 10-999) is below 100 nM.

Turning to `C=CC(=O)N1Cc2cc(-c3nc(-c4ccc5nn(C)cc5c4)c4ccsc4c3-c3c(F)cc(F)cc3OCC(C)(C)O)nn2[C@@H](C)C1` [Compound 881], the “% of modification” value in experiment [1] (setting [3]) is given as “A (percent of modification of PIK3CA protein ≥75%)”. The IC50 in the experiment with pAKT in BT474 cells (Compounds 10-999) was below 100 nM.

As for `C=CC(=O)N1CCc2nc(-c3nc(-c4cnc(C)s4)c4ccsc4c3-c3c(F)cc(F)cc3OCCOC)sc2C1` [Compound 431], the “% of modification” value in experiment [1] (setting [2]) is recorded as “A (percent of modification of PIK3CA protein ≥75%)”. Moreover, the IC50 with pAKT in BT474 cells (Compounds 10-999) was 100 to 1000 nM.

Turning to `C=CC(=O)N1CCn2nc(-c3nc(-c4ccc5c(c4)CN(CC(F)F)CC5)c4ccsc4c3-c3c(F)cc(F)cc3OCCO)cc2C1C` (centres unmarked) [Compound 1249], the “% of modification” value in experiment [1] (setting [3]) is “A (percent of modification of PIK3CA protein ≥75%)”. The IC50 in the experiment on pAKT in BT474 cells (Compounds 1000-1279) is below 100 nM.

As to `C=CC(=O)N1CCc2nc(-c3nc(N4CCN(C(C)C)C(=O)C4)c4ccsc4c3-c3ccc(F)cc3OCCOC)sc2C1` [Compound 176], the “% of modification” value in experiment [1] (setting [2]) was “A (percent of modification of PIK3CA protein ≥75%)”. In addition, in the experiment on pAKT in BT474 cells (Compounds 10-999), the IC50 was in the range of 100 to 1000 nM.

As for `C=CC(=O)N1CCc2nc(-c3nc(-c4cnn(C5CNC5)c4)c4ccsc4c3-c3ccc(F)cc3OCCOC)sc2C1` [Compound 132, 1-[2-[4-[1-(azetidin-3-yl)pyrazol-4-yl]-7-[4-fluoro-2-(2-methoxyethoxy)phenyl]thieno[3,2-c]pyridin-6-yl]-6,7-dihydro-4H-thiazolo[5,4-c]pyridin-5-yl]prop-2-en-1-one], the “% of modification” value in experiment [1] (setting [2]) is given as “A (percent of modification of PIK3CA protein ≥75%)”. For the same compound, the IC50 in the experiment on pAKT in BT474 cells (setting [4]) was in the range of 100 to 1000 nM.

Regarding `C=CC(=O)N1CCc2nc(-c3nc(-c4cnc5c(c4)CCN(C)C5)c4ccsc4c3-c3c(F)cc(F)cc3OC(C)C)sc2C1` [Compound 518], in experiment [1] (setting [2]), the “% of modification” value is “A (percent of modification of PIK3CA protein ≥75%)”. For the same compound, the IC50 in the experiment with pAKT in BT474 cells (Compounds 10-999) is below 100 nM.

For the compound `C=CC(=O)N1CCc2nc(-c3nc(-c4ccc5c(c4)CCNC5=O)c4ccsc4c3-c3c(F)cc(F)cc3OCCOC)sc2C1` [Compound 977], the “% of modification” value in experiment [1] (setting [3]) is “A (percent of modification of PIK3CA protein ≥75%)”. Also, the IC50 in the experiment with pAKT in BT474 cells (Compounds 10-999) is 100 to 1000 nM.

Regarding `C=C(F)C(=O)N1CCn2nc(-c3nc(-c4ccc5c(c4)CNC5=O)c4ccsc4c3-c3c(F)cc(F)cc3OCC(F)F)cc2C1` [Compound 353], in experiment [1] (setting [2]), the “% of modification” value was “B (50%<percent of modification <75%)”. Also, in the experiment on pAKT in BT474 cells (Compounds 10-999), the IC50 is 100 to 1000 nM.

`C=CC(=O)N1CCn2nc(-c3nc(-c4ccc(CC(=O)N(C)C)cc4)c4ccsc4c3-c3c(F)cc(F)cc3OCCOC)cc2C1C` (centres unmarked) [Compound 1090]: in experiment [1] (setting [3]), the “% of modification” value is “A (percent of modification of PIK3CA protein ≥75%)”. Besides, in the experiment on pAKT in BT474 cells (Compounds 1000-1279), the IC50 was below 100 nM.

Regarding `C=CC(=O)N1Cc2cc(-c3nc(-c4cnnc(C)c4)c4ccsc4c3-c3c(F)cc(F)cc3OC[C@@H](C)O)nn2C[C@H]1C` [Compound 743], in experiment [1] (setting [2]), the “% of modification” value is reported as “A (percent of modification of PIK3CA protein ≥75%)”. For the same compound, in the experiment with pAKT in BT474 cells (Compounds 10-999), the IC50 is below 100 nM.

Regarding `C=CC(=O)N1Cc2cc(-c3nc(-c4cnn(C)c(=O)c4)c4ccsc4c3-c3c(F)cc(F)cc3OCCOC)nn2C[C@H]1C` [Compound 793], the “% of modification” value in experiment [1] (setting [2]) is reported as “A (percent of modification of PIK3CA protein ≥75%)”. Further, the IC50 in the experiment with pAKT in BT474 cells (Compounds 10-999) was below 100 nM.

For the compound `C=CC(=O)N1CCn2nc(-c3nc(-c4ccc5c(c4)CN(C)CC54CC4)c4ccsc4c3-c3c(F)cc(F)cc3OCCO)cc2C1C` (centres unmarked) [Compound 1114], the “% of modification” value in experiment [1] (setting [3]) is listed as “A (percent of modification of PIK3CA protein ≥75%)”. Besides, the IC50 with pAKT in BT474 cells (Compounds 1000-1279) is below 100 nM.

Turning to `C=CC(=O)N1CCn2nc(-c3nc(-c4cnc5c(c4)CN(C)CC5)c4ccsc4c3-c3c(F)cc(F)cc3OC)cc2[C@H]1C` (single isomer, unassigned) [Compound 1147], in experiment [1] (setting [3]), the “% of modification” value is reported as “A (percent of modification of PIK3CA protein ≥75%)”. The 50% inhibitory concentration (IC50) with pAKT in BT474 cells (Compounds 1000-1279) was below 100 nM.

Turning to `C=CC(=O)N1CCc2ncc(-c3nc(-c4cnc5c(c4)CN(C)CC5)c4ccsc4c3-c3ccc(F)cc3OC(C)C)cc2C1` [Compound 319], the “% of modification” value in experiment [1] (setting [2]) was “A (percent of modification of PIK3CA protein ≥75%)”. The IC50 with pAKT in BT474 cells (Compounds 10-999) was below 100 nM.

`C=CC(=O)N1CCC(n2cc(-c3nc(-c4cnn5c4C(=O)NCC5)c4ccsc4c3-c3ccc(F)cc3OCCOC)cn2)CC1` [Compound 230]: the “% of modification” value in experiment [1] (setting [2]) is “B (50%<percent of modification <75%)”. For the same compound, the IC50 with pAKT in BT474 cells (Compounds 10-999) fell in the range of 100 to 1000 nM.

As to `C=CC(=O)N1CCn2nc(-c3nc(-c4ccc(=O)n(CC(F)F)c4)c4ccsc4c3-c3ccc(F)cc3OCCOC)cc2C1` [Compound 266], the “% of modification” value in experiment [1] (setting [2]) is “A (percent of modification of PIK3CA protein ≥75%)”. The half-inhibitory concentration (IC50) in the experiment on pAKT in BT474 cells (Compounds 10-999) is below 100 nM.
